Columns and labels:
[1] = tested on: human MALAT1 RNA; experiment: MALAT1 RNA reduction in HEK-AGTR1 FAP cells, free uptake, 24 hours; assay type: cell-based; settings: for MALAT (% control): relative to untreated control cells; for IC50: MALAT1 RNA, four parameter fit
Method: (§1) At the end of the treatment period, total RNA was isolated from the cells and MALAT1 RNA levels were measured by quantitative real-time PC&. […] MALAT1 RNA levels were normalized according to total RNA content, as measured by RIBOGREEN®. Reduction of MALAT1 RNA is presented Table 3 below as percent MALAT1 RNA amount relative to untreated control (UTC) cells. The half maximal inhibitory concentration (IC50) of each modified oligonucleotide was calculated using a non-linear fit [inhibitor] vs. response—variable slope (four parameters) formula in GraphPad Prism 7.01.

[2] = tested on: mouse MALAT RNA; experiment: MALAT RNA reduction in vivo, C57BL6/J mice, multiple dose; settings: for ED50: IV day 0, 4, 8
Method: Compound Nos. 556089, 1229761, and 1229762 are described in Table 1 above. Compound Nos. 556089, 1229761, and 1229762 were tested in C57BL6/J mice. The mice were divided into groups of 4 mice each. […] The mice were then sacrificed on day 12. Heart, adipose, adrenal, kidney, and liver tissue was then collected and homogenized and RNA analysis was performed. A group of 4 mice received PBS as a negative control.
RNA was extracted from heart, adipose, adrenal, kidney, and liver tissue for real-time PCR analysis of measurement of RNA expression of MALAT using primer probe set mMALAT1 #2 (forward sequence […] (SEQ ID NO: 5); reverse sequence […] (SEQ ID NO: 6); probe sequence […] (SEQ ID NO: 7)). Results are presented as percent change of RNA, relative to PBS control, normalized to mouse GAPDH.

[3] = tested on: human MALAT1 RNA; experiment: MALAT1 RNA reduction in HEK-AGTR1 FAP cells, free uptake, 48 hours; assay type: cell-based; settings: for MALAT (% control) / IC50: 48 hours; for MALAT (% control): relative to untreated control cells; for IC50: MALAT1 RNA, three parameter fit
Method: as §1, with “PCR.” for “PC&.”, “Reduction of MALAT1 RNA is presented Table 3 below as percent MALAT1 RNA amount relative to untreated control (UTC) cells.” left out, “response-variable” for “response—variable”, “(three” for “(four”

[4] = tested on: HEK-APLNR FAP cells; experiment: IP1 accumulation negative control in HEK-APLNR FAP cells (do not express AGTR1); assay type: cell-based, human; settings: 24 hours
Method: Activated AGTR1 couples to the Gαq subunit of heterotrimeric G proteins, which activates the phospholipase C (PLC) and subsequently inositol 1,4,5-trisphosphate (IP3) signaling cascade. AGTR1 signaling was measured using an IP-One Gq kit (cisbio #62IPAPEB). The kit detects the accumulation of inositol monophosphate (IP1), a stable downstream metabolite of IP3 induced by activation of a phospholipase C (PLC) cascade.
As a negative control, Compound Nos. 556089 and 1229761 were also tested in HEK293 cells expressing FAP tagged human Apelin receptor (HEK-APLNR FAP cells from Spectragenetics). […] HEK-APLNR FAP cells were cultured with Compound Nos. 556089 and 1229761, described herein above, at the concentrations detailed in Table 2 for 24 hours.

[5] = Adipose, 0.4 μmol/kg IV day 0, 4, 8, sacrifice day 12, relative to PBS
[6] = Adipose, 1.2 μmol/kg IV day 0, 4, 8, sacrifice day 12, relative to PBS
[7] = Adipose, 3.6 μmol/kg IV day 0, 4, 8, sacrifice day 12, relative to PBS
[8] = Adrenal, 0.4 μmol/kg IV day 0, 4, 8, sacrifice day 12, relative to PBS
[9] = Adrenal, 1.2 μmol/kg IV day 0, 4, 8, sacrifice day 12, relative to PBS
[10] = Adrenal, 3.6 μmol/kg IV day 0, 4, 8, sacrifice day 12, relative to PBS
[11] = Heart, 0.4 μmol/kg IV day 0, 4, 8, sacrifice day 12, relative to PBS
[12] = Heart, 1.2 μmol/kg IV day 0, 4, 8, sacrifice day 12, relative to PBS
[13] = Heart, 3.6 μmol/kg IV day 0, 4, 8, sacrifice day 12, relative to PBS
[14] = Kidney, 0.4 μmol/kg IV day 0, 4, 8, sacrifice day 12, relative to PBS
[15] = Kidney, 1.2 μmol/kg IV day 0, 4, 8, sacrifice day 12, relative to PBS
[16] = Kidney, 3.6 μmol/kg IV day 0, 4, 8, sacrifice day 12, relative to PBS
[17] = Liver, 0.4 μmol/kg IV day 0, 4, 8, sacrifice day 12, relative to PBS
[18] = Liver, 1.2 μmol/kg IV day 0, 4, 8, sacrifice day 12, relative to PBS
[19] = Liver, 3.6 μmol/kg IV day 0, 4, 8, sacrifice day 12, relative to PBS

Compound No. 1229761: Angiotensin II peptide [N6-(2-azidoacetyl)-K]DRVYIHPF conjugated via linker to 5′-end of MALAT1 modified oligonucleotide TCAGCATTCTAATAGCAGC
MALAT (% control) ([1]; 12 nM, 24 hours): 126 % control | MALAT (% control) ([1]; 111 nM, 24 hours): 76 % control | MALAT (% control) ([1]; 333 nM, 24 hours): 63 % control | MALAT (% control) ([1]; 1000 nM, 24 hours): 67 % control | MALAT (% control) ([1]; 3000 nM, 24 hours): 36 % control | MALAT (% control) ([1]; 9000 nM, 24 hours): 33 % control | IC50 ([1]; 24 hours): 0.182 µM | reduction of target RNA in words ([1]; compared to parent unconjugated Compound No. 556089, 24 hours): significantly greater reduction of target RNA | MALAT-1 RNA (% control) [2, 5]: 66.2 % control | MALAT-1 RNA (% control) [2, 6]: 33.0 % control | MALAT-1 RNA (% control) [2, 7]: 15.5 % control | ED50 ([2]; Adipose): 0.1 µmol/kg | MALAT-1 RNA (% control) [2, 8]: 90.3 % control | MALAT-1 RNA (% control) [2, 9]: 59.7 % control | MALAT-1 RNA (% control) [2, 10]: 41.5 % control | ED50 ([2]; Adrenal): 1.091 µmol/kg | MALAT-1 RNA (% control) [2, 11]: 82.3 % control | MALAT-1 RNA (% control) [2, 12]: 68.7 % control | MALAT-1 RNA (% control) [2, 13]: 31.7 % control | ED50 ([2]; Heart): 2.686 µmol/kg | MALAT-1 RNA (% control) [2, 14]: 53.8 % control | MALAT-1 RNA (% control) [2, 15]: 39.6 % control | MALAT-1 RNA (% control) [2, 16]: 21.4 % control | ED50 ([2]; Kidney): 1.88 µmol/kg | MALAT-1 RNA (% control) [2, 17]: 34.7 % control | MALAT-1 RNA (% control) [2, 18]: 12 % control | MALAT-1 RNA (% control) [2, 19]: 5.7 % control | ED50 ([2]; Liver): 0.063 µmol/kg | MALAT (% control) ([3]; 2.7 nM): 94 % control | MALAT (% control) ([3]; 8.2 nM): 98 % control | MALAT (% control) ([3]; 24.7 nM): 92 % control | MALAT (% control) ([3]; 74.1 nM): 85 % control | MALAT (% control) ([3]; 222.2 nM): 53 % control | MALAT (% control) ([3]; 666.7 nM): 26 % control | MALAT (% control) ([3]; 2000 nM): 18 % control | MALAT (% control) ([3]; 6000 nM): 16 % control | MALAT (% control) ([3]; .10 nM): 85 % control | MALAT (% control) ([3]; .3 nM): 99 % control | MALAT (% control) ([3]; .9 nM): 91 % control | IC50 [3]: 0.29 µM | reduction of target RNA in words ([3]; compared to parent unconjugated Compound No. 556089, 48 hours): significantly greater reduction of target RNA | IP1 accumulation ([4]; 0.0256 nM): 590 nM | IP1 accumulation ([4]; 0.128 nM): 477 nM | IP1 accumulation ([4]; 0.64 nM): 564 nM | IP1 accumulation ([4]; 3.2 nM): 510 nM | IP1 accumulation ([4]; 16 nM): 505 nM | IP1 accumulation ([4]; 80 nM): 492 nM | IP1 accumulation ([4]; 400 nM): 425 nM | IP1 accumulation ([4]; 2000 nM): 472 nM

Compound No. 1229762: Extended Angiotensin II peptide [N6-(2-azidoacetyl)-K]PPPAGSSPGDRVYIHPF conjugated via linker to 5′-end of MALAT1 modified oligonucleotide TCAGCATTCTAATAGCAGC
MALAT (% control) ([1]; 12 nM, 24 hours): 105 % control | MALAT (% control) ([1]; 37 nM, 24 hours): 90 % control | MALAT (% control) ([1]; 111 nM, 24 hours): 59 % control | MALAT (% control) ([1]; 333 nM, 24 hours): 36 % control | MALAT (% control) ([1]; 1000 nM, 24 hours): 41 % control | MALAT (% control) ([1]; 3000 nM, 24 hours): 22 % control | MALAT (% control) ([1]; 9000 nM, 24 hours): 24 % control | IC50 ([1]; 24 hours): 0.1 µM | improvement in target knockdown in words ([1]; among compounds tested, 24 hours): greatest improvement in target knockdown | MALAT-1 RNA (% control) [2, 5]: 58.3 % control | MALAT-1 RNA (% control) [2, 6]: 40.1 % control | MALAT-1 RNA (% control) [2, 7]: 20.5 % control | ED50 ([2]; Adipose): 1.385 µmol/kg | MALAT-1 RNA (% control) [2, 8]: 87.8 % control | MALAT-1 RNA (% control) [2, 9]: 66.5 % control | MALAT-1 RNA (% control) [2, 10]: 45.2 % control | ED50 ([2]; Adrenal): 1.2 µmol/kg | MALAT-1 RNA (% control) [2, 11]: 86.2 % control | MALAT-1 RNA (% control) [2, 12]: 73.4 % control | MALAT-1 RNA (% control) [2, 13]: 40 % control | ED50 ([2]; Heart): 3.14 µmol/kg | MALAT-1 RNA (% control) [2, 14]: 50.6 % control | MALAT-1 RNA (% control) [2, 15]: 43.8 % control | MALAT-1 RNA (% control) [2, 16]: 22.4 % control | ED50 ([2]; Kidney): 3.084 µmol/kg | MALAT-1 RNA (% control) [2, 17]: 40.5 % control | MALAT-1 RNA (% control) [2, 18]: 15.1 % control | MALAT-1 RNA (% control) [2, 19]: 5.7 % control | ED50 ([2]; Liver): 0.085 µmol/kg | MALAT (% control) ([3]; 2.7 nM): 100 % control | MALAT (% control) ([3]; 8.2 nM): 80 % control | MALAT (% control) ([3]; 24.7 nM): 69 % control | MALAT (% control) ([3]; 74.1 nM): 66 % control | MALAT (% control) ([3]; 222.2 nM): 42 % control | MALAT (% control) ([3]; 666.7 nM): 16 % control | MALAT (% control) ([3]; 2000 nM): 12 % control | MALAT (% control) ([3]; 6000 nM): 9 % control | MALAT (% control) ([3]; .10 nM): 103 % control | MALAT (% control) ([3]; .3 nM): 106 % control | MALAT (% control) ([3]; .9 nM): 101 % control | IC50 [3]: 0.125 µM | IP1 accumulation ([4]; 0.0256 nM): 723 nM | IP1 accumulation ([4]; 0.128 nM): 634 nM | IP1 accumulation ([4]; 0.64 nM): 679 nM | IP1 accumulation ([4]; 3.2 nM): 596 nM | IP1 accumulation ([4]; 16 nM): 526 nM | IP1 accumulation ([4]; 80 nM): 517 nM | IP1 accumulation ([4]; 400 nM): 609 nM | IP1 accumulation ([4]; 2000 nM): 576 nM

Source: patent US20220243210A1, “ANGIOTENSIN II TYPE 1 RECEPTOR TARGETED OLIGONUCLEOTIDES AND USES THEREOF” (Ionis Pharmaceuticals, Inc., priority 2019, published 2022)
